Test results reported in ChEMBL document CHEMBL3045772, “Amide derivatives of [6-acyl-2-benzothiazolinon-3-yl] acetic acids as potential analgesic and anti-inflammatory compounds” (Med Chem Res, 2010).
The source made the active and inactive calls. The calls are words filed in the database; no cut-off is given here.

What was measured:
Mus musculus [1] = assay: Anti-inflammatory activity in Mus musculus Swiss albino (mouse) assessed as inhibition of carrageenan-induced edema at 100 mg/kg, po pretreated 60 min before carrageenan-challenge measured after 360 min; assay type: functional
Mus musculus [2] = assay: Anti-inflammatory activity in Mus musculus Swiss albino (mouse) assessed as inhibition of carrageenan-induced edema at 100 mg/kg, po pretreated 60 min before carrageenan-challenge measured after 270 min; assay type: functional
Mus musculus [3] = assay: Anti-inflammatory activity in Mus musculus Swiss albino (mouse) assessed as inhibition of carrageenan-induced edema at 100 mg/kg, po pretreated 60 min before carrageenan-challenge measured after 180 min; assay type: functional
Mus musculus [4] = assay: Anti-inflammatory activity in Mus musculus Swiss albino (mouse) assessed as inhibition of carrageenan-induced edema at 100 mg/kg, po pretreated 60 min before carrageenan-challenge measured after 90 min; assay type: functional
Mus musculus [5] = assay: Analgesic activity in Mus musculus Swiss albino (mouse) assessed as inhibition of p-benzoquinone-induced writhing at 100 mg/kg, po pretreated 60 min before p-benzoquinone challenge; assay type: functional
[6] = biological target: T1, Polyunsaturated fatty acid 5-lipoxygenase (Homo sapiens) (UniProt P09917); assay: Inhibition of 5-LOX (unknown origin) at 10 uM
T1 sequence (whole entry): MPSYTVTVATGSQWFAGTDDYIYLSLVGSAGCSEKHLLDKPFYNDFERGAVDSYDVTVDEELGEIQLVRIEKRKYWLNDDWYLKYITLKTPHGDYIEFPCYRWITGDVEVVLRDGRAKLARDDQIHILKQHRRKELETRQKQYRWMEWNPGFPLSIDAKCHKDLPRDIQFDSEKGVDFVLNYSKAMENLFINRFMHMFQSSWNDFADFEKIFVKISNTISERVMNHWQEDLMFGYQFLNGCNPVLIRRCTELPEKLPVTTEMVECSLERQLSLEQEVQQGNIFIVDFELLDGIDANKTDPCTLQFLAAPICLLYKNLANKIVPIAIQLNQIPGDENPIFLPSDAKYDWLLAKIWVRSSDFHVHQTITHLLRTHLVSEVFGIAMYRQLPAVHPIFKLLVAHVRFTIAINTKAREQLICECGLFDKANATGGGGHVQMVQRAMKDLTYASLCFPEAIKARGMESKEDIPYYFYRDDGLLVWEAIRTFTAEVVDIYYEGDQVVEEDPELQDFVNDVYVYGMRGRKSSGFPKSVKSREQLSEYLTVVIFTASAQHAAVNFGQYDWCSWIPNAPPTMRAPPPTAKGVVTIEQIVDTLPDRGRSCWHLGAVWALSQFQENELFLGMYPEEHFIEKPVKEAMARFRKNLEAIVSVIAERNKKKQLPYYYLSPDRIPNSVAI

Mus musculus [7] = assay: Gastrointestinal toxicity in Mus musculus Swiss albino (mouse) assessed as ratio of ulcer at 100 mg/kg, po measured after 2 hr; assay type: organism-based; parameters: dose 100 mg/kg, route oral; conditions: in vivo
[8] = biological target: T2, Prostaglandin G/H synthase 2 (Homo sapiens) (UniProt P35354); conditions: Blood, at 10 µM;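 further: human whole blood COX-2 activity read out as PGE2 level measured by enzyme immunoassay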
T2 sequence (whole entry): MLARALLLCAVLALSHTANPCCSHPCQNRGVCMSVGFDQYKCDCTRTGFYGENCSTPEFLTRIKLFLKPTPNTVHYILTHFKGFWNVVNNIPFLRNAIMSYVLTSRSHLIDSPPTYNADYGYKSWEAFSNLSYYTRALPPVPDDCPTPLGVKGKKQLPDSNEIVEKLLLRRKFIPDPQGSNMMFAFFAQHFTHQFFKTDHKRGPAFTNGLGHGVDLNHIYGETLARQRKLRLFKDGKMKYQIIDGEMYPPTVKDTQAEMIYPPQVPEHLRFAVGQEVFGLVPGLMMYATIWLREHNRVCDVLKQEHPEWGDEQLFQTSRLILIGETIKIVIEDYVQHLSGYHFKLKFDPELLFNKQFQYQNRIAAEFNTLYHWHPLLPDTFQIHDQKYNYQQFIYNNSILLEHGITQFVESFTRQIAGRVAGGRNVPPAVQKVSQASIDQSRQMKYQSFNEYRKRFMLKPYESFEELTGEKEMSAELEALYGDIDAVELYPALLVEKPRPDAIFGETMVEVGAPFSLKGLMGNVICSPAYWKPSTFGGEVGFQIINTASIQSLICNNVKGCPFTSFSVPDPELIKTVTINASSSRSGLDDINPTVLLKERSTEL
Description: Inhibition of cyclooxygenase-2 in Homo sapiens (human) whole blood assessed as PGE2 level at 10 uM by EIA

[9] = biological target: Prostaglandin G/H synthase 1 (Homo sapiens) (UniProt P23219); conditions: Blood, at 10 µM;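 further: human whole blood assay, COX-1 activity read out as TXB2 level by enzyme immunoassay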
Sequence of Prostaglandin G/H synthase 1 (Homo sapiens) (P23219 whole entry): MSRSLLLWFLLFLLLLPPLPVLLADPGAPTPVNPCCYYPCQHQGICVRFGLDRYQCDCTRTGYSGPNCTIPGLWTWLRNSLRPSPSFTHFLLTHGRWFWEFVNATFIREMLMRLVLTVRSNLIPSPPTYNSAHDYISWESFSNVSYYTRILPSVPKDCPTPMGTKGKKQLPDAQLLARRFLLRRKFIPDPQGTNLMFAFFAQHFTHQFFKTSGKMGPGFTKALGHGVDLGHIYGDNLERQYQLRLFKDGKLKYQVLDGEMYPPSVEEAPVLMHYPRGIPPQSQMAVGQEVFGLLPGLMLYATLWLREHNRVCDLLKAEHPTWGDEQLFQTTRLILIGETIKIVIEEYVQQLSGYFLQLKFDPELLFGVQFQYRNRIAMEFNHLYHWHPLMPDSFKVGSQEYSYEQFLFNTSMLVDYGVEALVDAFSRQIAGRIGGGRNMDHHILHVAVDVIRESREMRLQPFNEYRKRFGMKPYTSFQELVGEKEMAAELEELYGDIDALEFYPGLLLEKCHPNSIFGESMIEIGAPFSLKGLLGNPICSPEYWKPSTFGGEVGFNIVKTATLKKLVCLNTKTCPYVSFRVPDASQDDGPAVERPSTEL
Description: Inhibition of cyclooxygenase-1 in Homo sapiens (human) whole blood assessed as TXB2 level at 10 uM by EIA

`O=C(Cn1c(=O)sc2cc(C(=O)c3ccccc3F)ccc21)Nc1ccccn1` was tested, and the inhibition (Mus musculus [1]) was “inactive”, the inhibition (Mus musculus [2]) was “inactive” and the inhibition (Mus musculus [3]) was “inactive”. For the same compound, the inhibition (Mus musculus [4]) was “inactive”, the inhibition in vivo at 100 mg/kg (Mus musculus [5]) was 18.7% and the inhibition [6] was “inactive”. The Activity (Mus musculus [7]) was “Non-toxic”, the inhibition [8] was “inactive” and the inhibition [9] was 17.8%.
With `O=C(Cn1c(=O)sc2cc(C(=O)c3ccccc3Cl)ccc21)Nc1ccccn1` the inhibition (Mus musculus [1]) was “inactive”, the inhibition (Mus musculus [2]) was “inactive” and the inhibition (Mus musculus [3]) was “inactive”. For the same compound, the inhibition (Mus musculus [4]) was “inactive”, the inhibition in vivo at 100 mg/kg (Mus musculus [5]) was 15.5% and the inhibition [6] was 3%. For the same compound, the Activity (Mus musculus [7]) was “Non-toxic”, the inhibition [8] was 28.9% and the inhibition [9] was 45.2%.
With `O=C(Cn1c(=O)sc2cc(C(=O)c3ccccc3F)ccc21)Nc1cccc(Cl)c1` the inhibition in vivo at 100 mg/kg (Mus musculus [1]) was 28.2%, the inhibition in vivo at 100 mg/kg (Mus musculus [2]) was 25.5% and the inhibition in vivo at 100 mg/kg (Mus musculus [3]) was 18.4%. The inhibition in vivo at 100 mg/kg (Mus musculus [4]) was 15.8%, the inhibition in vivo at 100 mg/kg (Mus musculus [5]) was 49.9% and the inhibition [6] was 31%. For the same compound, the Activity (Mus musculus [7]) was “Non-toxic”, the inhibition [8] was 19.3% and the inhibition [9] was 20.5%.
`O=C(Cn1c(=O)sc2cc(C(=O)c3ccccc3)ccc21)Nc1ccccn1` was tested, and the inhibition (Mus musculus [1]) was “inactive”, the inhibition (Mus musculus [2]) was “inactive” and the inhibition (Mus musculus [3]) was “inactive”. For the same compound, the inhibition (Mus musculus [4]) was “inactive”, the inhibition (Mus musculus [5]) was “inactive” and the inhibition [6] was “inactive”. For the same compound, the Activity (Mus musculus [7]) was “Non-toxic”, the inhibition [8] was “inactive” and the inhibition [9] was 49.8%.
In the case of `Cc1ccnc(NC(=O)Cn2c(=O)sc3cc(C(=O)c4ccccc4)ccc32)c1`, the inhibition (Mus musculus [1]) is reported as “inactive”, the inhibition (Mus musculus [2]) is reported as “inactive” and the inhibition (Mus musculus [3]) is reported as “inactive”. The inhibition (Mus musculus [4]) was “inactive”, the inhibition (Mus musculus [5]) was “inactive” and the inhibition [6] was 11%. The Activity (Mus musculus [7]) was “Toxic”, the inhibition [8] was 6.83% and the inhibition [9] was 50%.
Compound `O=C(Cn1c(=O)sc2cc(C(=O)c3ccccc3Cl)ccc21)Nc1ccc(Cl)cc1` has an inhibition in vivo at 100 mg/kg (Mus musculus [1]) of 33.2%, an inhibition in vivo at 100 mg/kg (Mus musculus [2]) of 31.9% and an inhibition in vivo at 100 mg/kg (Mus musculus [3]) of 28.4%. For the same compound, the inhibition in vivo at 100 mg/kg (Mus musculus [4]) was 25.8%, the inhibition in vivo at 100 mg/kg (Mus musculus [5]) was 47.3% and the inhibition [6] was “inactive”. The Activity (Mus musculus [7]) was “Non-toxic”, the inhibition [8] was 53.1% and the inhibition [9] was 39.2%.
With `O=C(Cn1c(=O)sc2cc(C(=O)c3ccccc3Cl)ccc21)Nc1cccc(Cl)c1` the inhibition in vivo at 100 mg/kg (Mus musculus [1]) was 31.3%, the inhibition in vivo at 100 mg/kg (Mus musculus [2]) was 30.4% and the inhibition in vivo at 100 mg/kg (Mus musculus [3]) was 22%. For the same compound, the inhibition in vivo at 100 mg/kg (Mus musculus [4]) was 23.9%, the inhibition in vivo at 100 mg/kg (Mus musculus [5]) was 41.8% and the inhibition [6] was 35%. For the same compound, the Activity (Mus musculus [7]) was “Non-toxic”, the inhibition [8] was “inactive” and the inhibition [9] was 7.27%.
Work on `O=C(Cn1c(=O)sc2cc(C(=O)c3ccccc3)ccc21)Nc1ccccc1` yielded an inhibition in vivo at 100 mg/kg (Mus musculus [2]) of 12.5%, an inhibition in vivo at 100 mg/kg (Mus musculus [3]) of 3.5% and an inhibition in vivo at 100 mg/kg (Mus musculus [4]) of 3.6%. For the same compound, the inhibition in vivo at 100 mg/kg (Mus musculus [5]) was 17.3%, the inhibition [6] was 6% and the Activity (Mus musculus [7]) was “Non-toxic”. For the same compound, the inhibition [8] was 1.47% and the inhibition [9] was 40.4%.
With `Cc1cccc(NC(=O)Cn2c(=O)sc3cc(C(=O)c4ccccc4Cl)ccc32)n1` the inhibition (Mus musculus [1]) was “inactive”, the inhibition (Mus musculus [2]) was “inactive” and the inhibition (Mus musculus [3]) was “inactive”. For the same compound, the inhibition (Mus musculus [4]) was “inactive”, the inhibition in vivo at 100 mg/kg (Mus musculus [5]) was 15.9% and the inhibition [6] was 28%. The Activity (Mus musculus [7]) was “Non-toxic”, the inhibition [8] was 2.21% and the inhibition [9] was 9.84%.
With `O=C(Cn1c(=O)sc2cc(C(=O)c3ccccc3F)ccc21)Nc1ccc(Cl)cc1` the inhibition in vivo at 100 mg/kg (Mus musculus [1]) was 31.7%, the inhibition in vivo at 100 mg/kg (Mus musculus [2]) was 30.3% and the inhibition in vivo at 100 mg/kg (Mus musculus [3]) was 29%. The inhibition in vivo at 100 mg/kg (Mus musculus [4]) was 25.9%, the inhibition in vivo at 100 mg/kg (Mus musculus [5]) was 54.3% and the inhibition [6] was “inactive”. The Activity (Mus musculus [7]) was “Non-toxic”, the inhibition [8] was “inactive” and the inhibition [9] was 10.4%.
